Source: paper PMC5218480 (PLoS ONE, 2017)

Test system: MV-4-11 cells
Assay: Gene expression microarray analysis (Affymetrix PrimeView) and GSEA
Type: cell-based, human
Parameters: RFU PODN (11730768_x_at) / Fold change /veh PODN (11730768_x_at) / RFU LINC00158 (11744669_a_at) / Fold change /veh LINC00158 (11744669_a_at) / RFU DUSP10 (11751237_a_at) / Fold change /veh DUSP10 (11751237_a_at) / RFU ID3 (11757404_x_at) / Fold change /veh ID3 (11757404_x_at) / RFU PLEKHG5 (11737974_s_at) / Fold change /veh PLEKHG5 (11737974_s_at) / RFU LRRC4B (11730491_at) / Fold change /veh LRRC4B (11730491_at) / RFU GIMAP4 (11747438_a_at) / Fold change /veh GIMAP4 (11747438_a_at) / RFU KRT8 (11758183_x_at) / Fold change /veh KRT8 (11758183_x_at) / RFU CNN1 (11734310_a_at) / Fold change /veh CNN1 (11734310_a_at) / RFU VPS37D (11726825_at) / Fold change /veh VPS37D (11726825_at) / RFU C10orf10 (11716522_x_at) / Fold change /veh C10orf10 (11716522_x_at) / RFU KIR2DL2 /// KIR2DL4 /// KIR2DL5A /// KIR2DL5B /// KIR2DS1 /// KIR2DS2 /// KIR2DS3 /// KIR2DS4 /// KIR3DL3 /// KIR3DL3 /// KIR3DS1 (11738374_at) / Fold change /veh KIR2DL2 /// KIR2DL4 /// KIR2DL5A /// KIR2DL5B /// KIR2DS1 /// KIR2DS2 /// KIR2DS3 /// KIR2DS4 /// KIR3DL3 /// KIR3DL3 /// KIR3DS1 (11738374_at) / RFU C1QL1 (11718748_at) / Fold change /veh C1QL1 (11718748_at) / RFU TMPRSS4 (11747572_a_at) / Fold change /veh TMPRSS4 (11747572_a_at) / RFU HAMP (11756126_x_at) / Fold change /veh HAMP (11756126_x_at) / RFU RNFT2 (11725882_a_at) / Fold change /veh RNFT2 (11725882_a_at) / RFU NR4A2 (11747474_a_at) / Fold change /veh NR4A2 (11747474_a_at) / RFU ABCC12 (11746883_a_at) / Fold change /veh ABCC12 (11746883_a_at) / RFU TMEM136 (11760407_x_at) / Fold change /veh TMEM136 (11760407_x_at) / RFU CLDN22 /// WWC2 (11732394_at) / Fold change /veh CLDN22 /// WWC2 (11732394_at) / RFU HLA-DPB1 (11760878_x_at) / Fold change /veh HLA-DPB1 (11760878_x_at) / RFU SPINT1 (11716480_a_at) / Fold change /veh SPINT1 (11716480_a_at) / RFU GAP43 (11754022_s_at) / Fold change /veh GAP43 (11754022_s_at) / RFU A4GNT (11735810_at) / Fold change /veh A4GNT (11735810_at) / RFU PRB3 (11715151_x_at) / Fold change /veh PRB3 (11715151_x_at) / RFU TUBB4B (11761932_at) / Fold change /veh TUBB4B (11761932_at) / RFU CAPN14 (11732068_a_at) / Fold change /veh CAPN14 (11732068_a_at) / RFU TMCC2 (11721928_a_at) / Fold change /veh TMCC2 (11721928_a_at) / RFU IRGQ (11745062_a_at) / Fold change /veh IRGQ (11745062_a_at) / RFU FAM174B (11720279_a_at) / Fold change /veh FAM174B (11720279_a_at) / RFU TMPRSS4 (11748680_a_at) / Fold change /veh TMPRSS4 (11748680_a_at) / RFU FAM212B (11763350_a_at) / Fold change /veh FAM212B (11763350_a_at) / RFU PLEKHG5 (11743358_a_at) / Fold change /veh PLEKHG5 (11743358_a_at) / RFU ZSCAN30 (11745921_a_at) / Fold change /veh ZSCAN30 (11745921_a_at) / RFU CMKLR1 (11741424_a_at) / Fold change /veh CMKLR1 (11741424_a_at) / RFU LOC101060620 /// MAPK8IP1 (11723275_at) / Fold change /veh LOC101060620 /// MAPK8IP1 (11723275_at) / RFU SPTSSB (11747773_x_at) / Fold change /veh SPTSSB (11747773_x_at) / RFU PRSS12 (11739890_at) / Fold change /veh PRSS12 (11739890_at) / RFU BIN1 (11741810_x_at) / Fold change /veh BIN1 (11741810_x_at) / RFU WNT11 (11732464_a_at) / Fold change /veh WNT11 (11732464_a_at) / RFU C10orf10 (11716521_a_at) / Fold change /veh C10orf10 (11716521_a_at) / RFU C5orf56 (11738089_at) / Fold change /veh C5orf56 (11738089_at) / RFU CYB561 (11721691_x_at) / Fold change /veh CYB561 (11721691_x_at) / RFU ANKRD19P (11752326_a_at) / Fold change /veh ANKRD19P (11752326_a_at) / RFU OR2T12 /// OR2T33 /// OR2T8 (11738714_s_at) / Fold change /veh OR2T12 /// OR2T33 /// OR2T8 (11738714_s_at) / RFU VCAN (11748164_a_at) / Fold change /veh VCAN (11748164_a_at) / RFU JSRP1 (11732532_at) / Fold change /veh JSRP1 (11732532_at) / RFU KRTAP10-11 (11738290_x_at) / Fold change /veh KRTAP10-11 (11738290_x_at) / RFU MYO3A (11730013_a_at) / Fold change /veh MYO3A (11730013_a_at) / RFU EBF3 (11725865_a_at) / Fold change /veh EBF3 (11725865_a_at) / RFU CAMK2N1 (11719241_x_at) / Fold change /veh CAMK2N1 (11719241_x_at) / RFU C5orf56 (11738088_a_at) / Fold change /veh C5orf56 (11738088_a_at) / RFU OLFML3 (11715873_a_at) / Fold change /veh OLFML3 (11715873_a_at) / RFU LOC100653217 /// NTM (11731650_a_at) / Fold change /veh LOC100653217 /// NTM (11731650_a_at) / RFU MAPK11 (11762145_a_at) / Fold change /veh MAPK11 (11762145_a_at) / RFU FIZ1 (11724087_x_at) / Fold change /veh FIZ1 (11724087_x_at) / RFU OASL (11726364_x_at) / Fold change /veh OASL (11726364_x_at) / RFU SOX15 (11748057_x_at) / Fold change /veh SOX15 (11748057_x_at) / RFU CD79A (11719716_a_at) / Fold change /veh CD79A (11719716_a_at) / RFU HIST1H1D (11736915_at) / Fold change /veh HIST1H1D (11736915_at) / RFU CASKIN2 (11723855_a_at) / Fold change /veh CASKIN2 (11723855_a_at) / RFU LOC730098 (11760151_x_at) / Fold change /veh LOC730098 (11760151_x_at) / RFU OR4N2 (11742367_at) / Fold change /veh OR4N2 (11742367_at) / RFU PRRT2 (11749266_a_at) / Fold change /veh PRRT2 (11749266_a_at) / RFU SNX32 (11753110_a_at) / Fold change /veh SNX32 (11753110_a_at) / RFU CDHR5 (11726645_a_at) / Fold change /veh CDHR5 (11726645_a_at) / RFU RCAN1 (11760418_a_at) / Fold change /veh RCAN1 (11760418_a_at) / RFU FAM167A (11723789_a_at) / Fold change /veh FAM167A (11723789_a_at) / RFU FAM26E (11764081_at) / Fold change /veh FAM26E (11764081_at) / RFU ISYNA1 (11749810_s_at) / Fold change /veh ISYNA1 (11749810_s_at) / RFU ACY1 (11761880_at) / Fold change /veh ACY1 (11761880_at) / RFU 11764098_at / Fold change /veh 11764098_at / RFU SAMD14 (11745864_x_at) / Fold change /veh SAMD14 (11745864_x_at) / RFU NPB (11741838_a_at) / Fold change /veh NPB (11741838_a_at) / RFU TMPRSS6 (11731388_a_at) / Fold change /veh TMPRSS6 (11731388_a_at) / RFU KRTAP10-2 (11738614_at) / Fold change /veh KRTAP10-2 (11738614_at) / RFU ARHGAP8 /// PRR5-ARHGAP8 (11727945_x_at) / Fold change /veh ARHGAP8 /// PRR5-ARHGAP8 (11727945_x_at) / RFU KRTAP5-7 /// NADSYN1 (11734609_at) / Fold change /veh KRTAP5-7 /// NADSYN1 (11734609_at) / RFU RASL12 (11751679_a_at) / Fold change /veh RASL12 (11751679_a_at) / RFU CDKN2B (11736163_a_at) / Fold change /veh CDKN2B (11736163_a_at) / RFU PRF1 (11729649_at) / Fold change /veh PRF1 (11729649_at) / RFU, ZNF638 /// ZNF638-IT1 / Fold change vs veh, ZNF638 /// ZNF638-IT1 / RFU, PANK3 / Fold change vs veh, PANK3 / RFU, SH3YL1 / Fold change vs veh, SH3YL1 / RFU, ZEB2 / Fold change vs veh, ZEB2 / RFU, NRIP1 / Fold change vs veh, NRIP1 / RFU, PTTG1IP / Fold change vs veh, PTTG1IP / RFU, CAPN2 / Fold change vs veh, CAPN2 / RFU, MED14 / Fold change vs veh, MED14 / RFU, SNORA58 / Fold change vs veh, SNORA58 / RFU, C1orf63 / Fold change vs veh, C1orf63 / RFU, LRRFIP1 / Fold change vs veh, LRRFIP1 / RFU, NDUFAF7 / Fold change vs veh, NDUFAF7 / RFU, SLC12A2 / Fold change vs veh, SLC12A2 / RFU, IBTK / Fold change vs veh, IBTK / RFU, ESF1 / Fold change vs veh, ESF1 / Fold change vs veh, TMEM50B / RFU, TAOK1 / Fold change vs veh, TAOK1 / RFU, ACBD3 / Fold change vs veh, ACBD3 / RFU, TMA16 / Fold change vs veh, TMA16 / RFU, RWDD3 / Fold change vs veh, RWDD3 / RFU, BCAT1 / Fold change vs veh, BCAT1 / RFU, EDEM3 / Fold change vs veh, EDEM3 / RFU, TMEM33 / Fold change vs veh, TMEM33 / RFU, WDR75 / Fold change vs veh, WDR75 / RFU, AHCTF1 / Fold change vs veh, AHCTF1 / RFU, TFRC / Fold change vs veh, TFRC / RFU, ZDHHC17 / Fold change vs veh, ZDHHC17 / RFU, NOM1 / Fold change vs veh, NOM1 / RFU, ARL8B / Fold change vs veh, ARL8B / RFU, ZBTB11 / Fold change vs veh, ZBTB11 / RFU, TAMM41 / Fold change vs veh, TAMM41 / RFU, KIAA1704 /// LOC100996395 / Fold change vs veh, KIAA1704 /// LOC100996395 / RFU, ING1 / Fold change vs veh, ING1 / RFU, TRMT61B / Fold change vs veh, TRMT61B / RFU, FUBP3 / Fold change vs veh, FUBP3 / RFU, TP53 / Fold change vs veh, TP53 / RFU, TNKS2 / Fold change vs veh, TNKS2 / RFU, ZFP14 / Fold change vs veh, ZFP14 / RFU, ACTR2 / Fold change vs veh, ACTR2 / RFU, PPP3R1 / Fold change vs veh, PPP3R1 / RFU, PIK3R1 / Fold change vs veh, PIK3R1 / RFU, HNRNPA1 / Fold change vs veh, HNRNPA1 / RFU, RNF170 / Fold change vs veh, RNF170 / RFU, ZNF28 / Fold change vs veh, ZNF28 / RFU, RNGTT / Fold change vs veh, RNGTT / RFU, OGT / Fold change vs veh, OGT / RFU, BRD1 / Fold change vs veh, BRD1 / RFU, MARS / Fold change vs veh, MARS / RFU, ZNF655 / Fold change vs veh, ZNF655 / RFU, FAHD1 / Fold change vs veh, FAHD1 / RFU, BDP1 / Fold change vs veh, BDP1 / RFU, LRRCC1 / Fold change vs veh, LRRCC1 / RFU, ARID1A / Fold change vs veh, ARID1A / RFU, ZNF146 / Fold change vs veh, ZNF146 / RFU, ZNF330 / Fold change vs veh, ZNF330 / RFU, GPN3 / Fold change vs veh, GPN3 / RFU, C9orf123 / Fold change vs veh, C9orf123 / RFU, N4BP2L2 / Fold change vs veh, N4BP2L2 / RFU, ARFIP1 / Fold change vs veh, ARFIP1 / RFU, FAM179B / Fold change vs veh, FAM179B / RFU, BCL10 / Fold change vs veh, BCL10 / RFU, UHRF1BP1L / Fold change vs veh, UHRF1BP1L / RFU, BET1 / Fold change vs veh, BET1 / RFU, CNOT2 / Fold change vs veh, CNOT2 / RFU, ZNF268 / Fold change vs veh, ZNF268 / Fold change vs veh, ZNF507 / RFU, DGCR2 / Fold change vs veh, DGCR2 / RFU, WDSUB1 / Fold change vs veh, WDSUB1 / Fold change vs veh, HSP90B1 /// MIR3652 / RFU, ADSS / Fold change vs veh, ADSS / RFU, GK / Fold change vs veh, GK / RFU, ZNF148 / Fold change vs veh, ZNF148 / RFU, TAF9 / Fold change vs veh, TAF9 / RFU, SLC1A5 / Fold change vs veh, SLC1A5 / RFU, SLMO2 / Fold change vs veh, SLMO2 / RFU, ABCC4 / Fold change vs veh, ABCC4 / RFU, LOC101060439 /// RAP1B / Fold change vs veh, LOC101060439 /// RAP1B / RFU, RFX7 / Fold change vs veh, RFX7 / RFU, GTPBP10 / Fold change vs veh, GTPBP10 / RFU, CNEP1R1 / Fold change vs veh, CNEP1R1 / RFU, BIVM-ERCC5 /// ERCC5 / Fold change vs veh, BIVM-ERCC5 /// ERCC5 / RFU, ILF3 / Fold change vs veh, ILF3 / RFU 11762660_at / Fold change /veh 11762660_at / RFU VCAN (11757783_s_at) / Fold change /veh VCAN (11757783_s_at) / RFU DDX43 (11728927_at) / Fold change /veh DDX43 (11728927_at) / RFU KRT8 (11758188_x_at) / Fold change /veh KRT8 (11758188_x_at) / RFU NKD1 (11759106_at) / Fold change /veh NKD1 (11759106_at) / RFU SRD5A1 (11742802_a_at) / Fold change /veh SRD5A1 (11742802_a_at) / RFU TPSAB1 /// TPSB2 (11721975_s_at) / Fold change /veh TPSAB1 /// TPSB2 (11721975_s_at) / RFU GSTM3 (11746129_a_at) / Fold change /veh GSTM3 (11746129_a_at) / RFU IL23R (11737362_x_at) / Fold change /veh IL23R (11737362_x_at) / RFU TMEM51 (11727254_a_at) / Fold change /veh TMEM51 (11727254_a_at) / RFU PIWIL2 (11732686_x_at) / Fold change /veh PIWIL2 (11732686_x_at) / RFU ORM1 (11744905_x_at) / Fold change /veh ORM1 (11744905_x_at) / RFU CCDC152 (11743942_at) / Fold change /veh CCDC152 (11743942_at) / RFU ECM1 (11717891_a_at) / Fold change /veh ECM1 (11717891_a_at) / RFU IL23R (11748794_a_at) / Fold change /veh IL23R (11748794_a_at) / RFU TNFAIP8L3 (11732012_x_at) / Fold change /veh TNFAIP8L3 (11732012_x_at) / RFU MBOAT4 (11741988_at) / Fold change /veh MBOAT4 (11741988_at) / RFU 11764193_at / Fold change /veh 11764193_at / RFU TMEM53 (11763286_at) / Fold change /veh TMEM53 (11763286_at) / RFU MAGEB2 (11727129_at) / Fold change /veh MAGEB2 (11727129_at) / RFU TMEM200A (11744735_a_at) / Fold change /veh TMEM200A (11744735_a_at) / RFU CCDC152 (11751479_a_at) / Fold change /veh CCDC152 (11751479_a_at) / RFU FAM211A (11726209_a_at) / Fold change /veh FAM211A (11726209_a_at) / RFU RGS16 (11746705_a_at) / Fold change /veh RGS16 (11746705_a_at) / RFU VCAN (11755009_s_at) / Fold change /veh VCAN (11755009_s_at) / RFU RHOB (11743442_s_at) / Fold change /veh RHOB (11743442_s_at) / RFU RGS16 (11720943_a_at) / Fold change /veh RGS16 (11720943_a_at) / RFU RGS16 (11720944_at) / Fold change /veh RGS16 (11720944_at) / RFU, VPS4B / Fold change vs veh, VPS4B / RFU, CREB1 / Fold change vs veh, CREB1 / RFU, DNAJC13 / Fold change vs veh, DNAJC13 / RFU, GNAQ / Fold change vs veh, GNAQ / RFU, CDK5R1 / Fold change vs veh, CDK5R1 / RFU, ZRANB3 / Fold change vs veh, ZRANB3 / RFU, CUL4A / Fold change vs veh, CUL4A / RFU, CCNY / Fold change vs veh, CCNY / RFU, UFL1 / Fold change vs veh, UFL1 / RFU, COG3 / Fold change vs veh, COG3 / RFU, DIAPH2 / Fold change vs veh, DIAPH2 / RFU, SKA2 / Fold change vs veh, SKA2 / RFU, AFF3 / Fold change vs veh, AFF3 / RFU, LMF1 / Fold change vs veh, LMF1 / RFU, IPO11 / Fold change vs veh, IPO11 / RFU, DFFB / Fold change vs veh, DFFB / RFU, FOXP1 / Fold change vs veh, FOXP1 / RFU, CARD8 / Fold change vs veh, CARD8 / RFU, STRN3 / Fold change vs veh, STRN3 / RFU, ADK / Fold change vs veh, ADK / RFU, RASSF2 / Fold change vs veh, RASSF2 / RFU, WIPF1 / Fold change vs veh, WIPF1 / RFU, LARP1B / Fold change vs veh, LARP1B / RFU, RASA1 / Fold change vs veh, RASA1 / RFU, RB1 / Fold change vs veh, RB1 / RFU, PPFIA1 / Fold change vs veh, PPFIA1 / RFU, MAT2A / Fold change vs veh, MAT2A / RFU, CCT5 / Fold change vs veh, CCT5 / RFU, WDR92 / Fold change vs veh, WDR92 / RFU, CUX1 / Fold change vs veh, CUX1 / RFU, TTC7A / Fold change vs veh, TTC7A / RFU, TMEM135 / Fold change vs veh, TMEM135 / RFU, DEPTOR / Fold change vs veh, DEPTOR / RFU, CPM / Fold change vs veh, CPM / RFU, DNAJB6 / Fold change vs veh, DNAJB6 / RFU, CACNA2D3 / Fold change vs veh, CACNA2D3 / RFU, DTX4 / Fold change vs veh, DTX4 / RFU, TFCP2 / Fold change vs veh, TFCP2 / RFU, GMCL1 /// GMCL1P1 / Fold change vs veh, GMCL1 /// GMCL1P1 / RFU, AEBP2 / Fold change vs veh, AEBP2 / RFU, SNHG1 /// SNORD22 /// SNORD25 /// SNORD26 /// SNORD27 /// SNORD28 /// SNORD29 /// SNORD31 / Fold change vs veh, SNHG1 /// SNORD22 /// SNORD25 /// SNORD26 /// SNORD27 /// SNORD28 /// SNORD29 /// SNORD31 / Fold change (Aza/veh), C12orf56 (ProbeSet 11735607_a_at) / Fold change (ACY-1035/veh), C12orf56 (ProbeSet 11735607_a_at) / Fold change (Aza/veh), FGFR1OP (ProbeSet 11751329_s_at) / Fold change (ACY-1035/veh), FGFR1OP (ProbeSet 11751329_s_at) / Fold change (Aza/veh), VPS36 (ProbeSet 11739960_a_at) / Fold change (ACY-1035/veh), VPS36 (ProbeSet 11739960_a_at) / RFU SYPL1 (11715823_x_at) / Fold change /veh SYPL1 (11715823_x_at) / RFU IGFBP7 (11715501_s_at) / Fold change /veh IGFBP7 (11715501_s_at) / RFU REEP3 (11722064_at) / Fold change /veh REEP3 (11722064_at) / RFU IGLL1 (11728026_x_at) / Fold change /veh IGLL1 (11728026_x_at): dose or concentration left out as unconfirmed
Conditions: ProbeSet 11733108_at; LIST D

## Nc1ncn([C@@H]2O[C@H](CO)[C@@H](O)[C@H]2O)c(=O)n1 [azacitidine]
  Fold change vs veh, GNAQ: 0.77
